Reference: patent US5449677A, “Cyclic benzylamino, benzylamido and benzylimido antipsychotic agents” (McNeilab, Inc., priority 1993, dated 1995)
Structures can show the parent of a compound that is named as a salt.

assay: Block of Conditioned Avoidance Responding (Rat) test (CAR); type: in vivo, male Fischer 344 rats; settings: po, read-out: % inhibition CAR
Method: The sessions consist of 60 trials, one every minute.
% change CAR=((Day 2% CAR/Day 1% CAR)×100)-100
Failure to escape was calculated for each animal as follows:
% Failures=#of Failures to Escape/#of trials

First: CC(C)Oc1ccccc1N1CCN(Cc2cccc(CN3CCCCC3=O)c2)CC1 [CP #1, 1-[[3-[[1-[2-(1-Methylethoxy)phenyl]-4-piperazinyl]methyl]phenyl]methyl]piperidin-2-one Hydrochloride (3:2)]
Second: CC(C)Oc1ccccc1N1CCN(Cc2ccc(CN3CCCCC3=O)cc2)CC1 [CP #2, 1-[[4-[[1-[2-(1-Methylethoxy)phenyl]-4-piperazinyl]methyl]phenyl]methyl]-piperidin-2-one Hydrochloride (5:1)]
The change in vivo at 5 mg/kg of the first is lower: -89% for the first, -29% for the second.

For `CC(C)Oc1ccccc1N1CCN(Cc2ccccc2CN2CCCCC2=O)CC1` [CP #3, 1-[[2-[[1-[2-(1-Methylethoxy)phenyl]-4-piperazinyl]methyl]phenyl]methyl]-piperidin-2-one Hydrochloride (3:2)], the change in vivo at 5 mg/kg was -6%.
